# PMC8244912, “An oxytocin/vasopressin-related neuropeptide modulates social foraging behavior in the clonal raider ant” (PLoS Biology, 2021)
# Where a SMILES comes first, the peptide text is derived from it. Bridges are numbered along the chain shown (N, C = ends).
# Test system: HEK293T cells transfected with an empty vector
# Experiment: Calcium flux, HEK293T cells transfected with empty vector
# Format: cell-based, human
# Conditions: inotocin 100 nM
# Protocol: Human embryonic kidney 293T (HEK293T) cells were cultured in DMEM supplemented with 10% FBS at 37°C in a tissue culture incubator with a humidified atmosphere containing 5% CO2. Cells were plated in 10-cm dishes, and, when they reached 60% to 70% confluency, they were transfected with a pcDNA3.3 vector containing approximately 1 ng of inotocin receptor cDNA or an empty vector as a control using Lipofectamine 2000. Cells were transfected directly into poly-D-lysine–coated 384-well plates and incubated for 48 hours at 37°C. Subsequently, cells were incubated with FLIPR Calcium 4 Assay kit dye for 1 hour in the incubator. The fluorescence (excitation, 488 nm; emission, 530 nm) of the wells was recorded using a Flex Station II 384 (Molecular Devices, San Jose, California, USA), and a dose curve of inotocin (0 to 3 μM) was applied to the wells, in sextuplicate (see below for inotocin peptide synthesis). We calculated the EC50 values using Prism (GraphPad Software version 8) nonlinear regression, 4-parameter logistic curve fit. Dose curves were repeated at least 3 times on independently prepared samples and different days. Results were consistent across replicates, and example dose curves are shown in Fig 1C and S4A Fig. Control experiments are shown in S2–S5 Figs.
structure (smiles),measurement,value
CC[C@H](C)[C@@H]1NC(=O)[C@H](CC(C)C)NC(=O)[C@@H](N)CSSC[C@@H](C(=O)N2CCC[C@H]2C(=O)N[C@@H](CCCNC(=N)N)C(=O)NCC(N)=O)NC(=O)[C@H](CC(N)=O)NC(=O)[C@H]([C@@H](C)O)NC1=O [Inotocin] (H-CLITNCPRG-NH2; disulfide 1-6; N-terminus and C-terminus assumed),calcium response,No Ca^2+ influx is detected
